Patent publication US11026984B2, “Use of isothiocyanate derivatives as modulators of peripheral and neuropathic pain” (Indena S.P.A., priority 2015, dated 2021)

Tested on: oxaliplatin induced hyperalgesia in the mouse
Test: Cold plate test, oxaliplatin induced hyperalgesia in mice
Format: in vivo
Conditions: for Licking latency, 15 min after treatment / Licking latency, 30 min after treatment / Licking latency, 45 min after treatment / Licking latency, 60 min after treatment: day 14, oxaliplatin-treated mice; for Licking latency, Pre-test (48 hrs after last oxaliplatin adm.): baseline before treatment, oxaliplatin 2.4 mg/kg i.p., mean of 10 mice
Protocol: The acute oral effect of Moringa oleifera L. seeds extract and purified GMG and GMG-ITC on oxaliplatin induced hyperalgesia in mice (Cold plate test) were evaluated.
The method utilized is a modification of that described by Cavalletti et al. (Cavalletti G. et al., Eur. J. Cancer 37(18), 2457, 2001). Oxaliplatin (2.4 mg/kg) was dissolved in 5% glucose solution and administered i.p. for 5 consecutive days every week for 14 days. On day 14, the test products were suspended in 1% CMC and administered orally. Pregabalin was used, in the same experimental conditions, as a reference active compound at the dose of 15 mg/kg s.c. dissolved in saline.
Pain-related behavior (i.e. lifting and licking of the hind paw) were observed and the time (seconds) of the first sign was recorded.

[1] = group later given 10 mg kg^-1 orally

Row | Compound | Licking latency, 15 min after treatment (10 mg kg^-1 oral, acute) | Licking latency, 30 min after treatment (10 mg kg^-1 oral, acute) | Licking latency, 45 min after treatment (10 mg kg^-1 oral, acute) | Licking latency, 60 min after treatment (10 mg kg^-1 oral, acute) | Licking latency, Pre-test (48 hrs after last oxaliplatin adm.) [1] | Licking latency, 15 min after treatment (15 mg kg^-1 s.c.) | Licking latency, 30 min after treatment (15 mg kg^-1 s.c.) | Licking latency, 45 min after treatment (15 mg kg^-1 s.c.) | Licking latency, 60 min after treatment (15 mg kg^-1 s.c.) | Licking latency, Pre-test (48 hrs after last oxaliplatin adm.) (group later given 15 mg kg^-1 s.c.)
1 | C[C@@H]1O[C@@H](Oc2ccc(C/C(=N/OS(=O)(=O)O)S[C@@H]3O[C@H](CO)[C@@H](O)[C@H](O)[C@H]3O)cc2)[C@H](O)[C@H](O)[C@H]1O [GMG, 4-(α-L-rhamnosyloxy)-benzyl glucosinolate] | 21.1 ± 1.9^^ s | 16.2 ± 0.7^ s | 15.1 ± 1.3^ s | 13.5 ± 2.3 s | 10.3 ± 0.5 s | – | – | – | – | –
2 | C[C@@H]1O[C@@H](Oc2ccc(CN=C=S)cc2)[C@H](O)[C@H](O)[C@H]1O [GMG-ITC, 4-(α-L-rhamnosyloxy)-benzyl isothiocyanate] | 20.9 ± 1.8^^ s | 16.0 ± 0.6^ s | 15.0 ± 1.2^ s | 13.3 ± 2.1 s | 10.2 ± 0.4 s | – | – | – | – | –
3 | CC(C)C[C@H](CN)CC(=O)O [pregabalin, reference compound] | – | – | – | – | – | 19.9 ± 1.9^ s | 16.1 ± 0.6^ s | 14.9 ± 1.3^ s | 13.1 ± 2.0 s | 11.0 ± 0.7 s
